Assay results reported in patent publication US10617695B2, “Ophthalmic compositions containing alcaftadine” (Vistakon Pharmaceuticals, LLC, priority 2006, dated 2020).

Assays:
[1] = tested on: RBL-CCR1 (Rat Basophil Leukemia-Chemokine Receptor-1) cell line; test: Mast cell degranulation / cell stabilization in RBL-CCR1 cells; assay type: cell-based
Method: The cell stabilization potential of alcaftadine was evaluated using the RBL-CCR1 (Rat Basophil Leukemia-Chemokine Receptor-1) cell line as a way of investigating its ability to effect mast cell stabilization. The use of basophil cell lines to assess anti-allergic drugs for cell stabilization potential is well established. Physiologically, basophils are similar to mast cells, containing pre-formed inflammatory mediators that are released through a similar degranulation process involving IgE cross-linking. Because these cell lines are readily available, they present efficiencies over conducting stabilization assays in mast cell lines.
Cultured RBL-CCR1 cells were sensitized to anti-DNP IgE. Following sensitization, cells were treated with various concentrations of alcaftadine or its major active metabolite (0.083%, 0.0083% and 0.00083%) or ophthalmic vehicle (placebo), and stimulated with DNP and/or MIP-1a (Macrophage Inflammatory Protein-1 alpha, a degranulation enhancer) to induce degranulation. A 10× and 100× placebo control solution (ophthalmic vehicle solution) in D-DEM (Dulbecco's modified Eagle's medium) was also employed.
However, co-stimulation induced a robust degranulation response.

[2] = Systemic (plasma) levels of the carboxylic acid in patients; assay type: in vivo, human; details: for Cmax: plasma, other: ophthalmic solution, bilateral instillation, 0.25 % ophthalmic solution, 0.25% ophthalmic solution bilaterally
Method: Patients were bilaterally dosed with 0.25% ophthalmic solutions of 6,11-dihydro-11-(1-methyl-4-piperdinylidene)-5H-imidazo[2,1-b][3]benazepine-3-carboxylic acid for seven days. The plasma levels of those patients was assessed pre-dose, and 0.25, 0.5, 1, 1.5, 2, 3, 4, 6, 8, 12, and 18 hour post medication instillation on days one and seven.

[3] = target: T1, human histamine H4 receptor (Homo sapiens, UniProt Q9H3N8); test: H4 receptor agonist assay: inhibition of forskolin-induced cAMP (reporter gene) in transfected SK-N-MC cells; assay type: cell-based
T1 construct: express a reporter gene construct and the human H4 receptor full-coding region; expressed in transfected cells; host or cells: SK-N-MC cells with a CRE-beta-galactosidase reporter
Method: (§1) Alcaftadine and 6,11-dihydro-11-(1-methyl-4-piperdinylidene)-5H-imidazo[2,1-b][3]benazepine-3-carboxylic acid (CAS #147083-93-0) were prepared at 10 mM in 100% dimethylsulfoxide (DMSO) for the binding assays and at 10 mM in Na/K phosphate buffer, pH 7.0, for the cellular assays. Cell pellets from SK-N-MC cells transfected with human H4 receptor were homogenized in 20 mM Tris-HCl/0.5 mM ethylendediaminetetraacetic acid (EDTA) pH 8.0 (TE buffer). Supernatants collected after centrifugation at 800 g were recentrifuged at 30,000 g for 30 min. Pellets were re-homogenized in TE buffer. […] Non-specific binding was defined with 100 μM cold histamine. […] Seven concentrations of compound were tested spanning 10^−11 to 10^−5 M with each concentration being run in triplicate. […] This assay was run twice and the results are reported as the average of the two runs. SK-N-MC cell lines were created that express a reporter gene construct and the human H4 receptor full-coding region. […] Color was quantitated on a microplate reader at absorbance 570 nm. […]
To test whether alcaftadine or 6,11-dihydro-11-(1-methyl-4-piperdinylidene)-5H-imidazo[2,1-b][3]benazepine-3-carboxylic acid (CAS #147083-93-0) were H4 receptor agonists, functional assays were carried out in SK-N-MC cells transfected with the human histamine H4 receptor. The ability of the compounds to inhibit forskolin-induced cAMP increases was assessed.

[4] = target: T1, human histamine H4 receptor; test: H4 receptor antagonist assay: shift of histamine EC50, Schild plot, in transfected SK-N-MC cells; assay type: cell-based
Method: as §1, with “region. The reporter gene was β-galactosidase under the control of cyclic adenosine monophosphate (cAMP) responsive elements. Cells were plated in 96-well plates the night before the assay. Antagonists were added 10 min prior to the addition of histamine, which was added directly to the cell medium. Forskolin (5 μM final concentration) was added 10 min after the addition of histamine. Cells were returned to the incubator for 6 h at 37° C. The medium was then aspirated and cells were lysed with 25 μL of 0.1× assay buffer (10 mM sodium phosphate, pH 8, 0.2 mM MgSO4, 0.01 mM MnCl2) and incubated at room temperature for 10 min.” for “region.”
To test whether alcaftadine or 6,11-dihydro-11-(1-methyl-4-piperdinylidene)-5H-imidazo[2,1-b][3]benazepine-3-carboxylic acid (CAS #147083-93-0) were antagonists of the H4 receptor, the ability of the compounds shift the EC50 of the histamine inhibition of forskolin-induced cAMP increases was assessed in SK-N-MC cells transfected with the human histamine H4 receptor. […]

[5] = target: T1, human histamine H4 receptor; test: [3H]histamine competition binding to membranes of SK-N-MC cells transfected with human H4 receptor; details: average of two runs; 10 nM [3H]histamine; Cheng and Prusoff

maximum plasma concentrations ([2]; human, in vivo) [ng/mL] | Cmax ([2]; human, Day 1) [ng/mL] | Cmax ([2]; human, Day 7) [ng/mL] | time by which plasma concentrations declined to below the lower limit of quantification ([2]; post dosing, lower limit of quantification 0.1 ng/mL) [h] | EC50 ([3]; absence of histamine, read-out: agonist activity: inhibition of forskolin-induced cAMP levels (highest concentration without agonism)) [µM] | antagonist activity: shift of histamine EC50 (highest concentration without shift) [4] [µM] | Ki [5] [µM] | agonist activity: inhibition of forskolin-induced cAMP levels [3] | Compound | overall membrane stabilization [1] | stabilization effect added to that of placebo ([1]; 10× dose level) | degranulation at the highest concentration ([1]; […], DNP-HSA alone, MIP-1a alone, and co-stimulation) | cell stabilization compared to co-stimulation control and negative controls (placebo 10× and placebo 100×) ([1]; co-stimulation assay, concentrations of […] and […], p<0.0001 for both concentrations)
7.23 | 3.23 | 2.71 | ≤ 12 | > 100 | > 100 | > 10 |  | CN1CCC(=C2c3ccccc3CCn3c(C(=O)O)cnc32)CC1 [6,11-dihydro-11-(1-methyl-4-piperdinylidene)-5H-imidazo[2,1-b][3]benazepine-3-carboxylic acid] | effective membrane stabilizing agents | enhanced the stabilization effect | unanticipated and significant degranulation | superior at cell stabilization
 |  |  |  |  |  |  | agonist | NCCc1c[nH]cn1 [histamine, reference compound] |  |  |  | 
